Consider 44 molecules from BindingDB's records for patent US12065430 (Taiho Pharmaceutical, 2024).

Each structure is given as a SMILES string.

This assay deals with T1, Son of sevenless homolog 1 [564-1049]/GTPase KRas [G12C] (UniProt P01116+Q07889, G12C).
T1 construct: 564-1049
T1 sequence (P01116 whole entry G12C): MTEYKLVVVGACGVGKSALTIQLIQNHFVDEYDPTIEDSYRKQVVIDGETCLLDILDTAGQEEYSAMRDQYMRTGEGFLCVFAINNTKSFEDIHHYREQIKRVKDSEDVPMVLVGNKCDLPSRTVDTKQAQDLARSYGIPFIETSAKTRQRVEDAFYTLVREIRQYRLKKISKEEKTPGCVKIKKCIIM
T1 sequence (Q07889 564-1049): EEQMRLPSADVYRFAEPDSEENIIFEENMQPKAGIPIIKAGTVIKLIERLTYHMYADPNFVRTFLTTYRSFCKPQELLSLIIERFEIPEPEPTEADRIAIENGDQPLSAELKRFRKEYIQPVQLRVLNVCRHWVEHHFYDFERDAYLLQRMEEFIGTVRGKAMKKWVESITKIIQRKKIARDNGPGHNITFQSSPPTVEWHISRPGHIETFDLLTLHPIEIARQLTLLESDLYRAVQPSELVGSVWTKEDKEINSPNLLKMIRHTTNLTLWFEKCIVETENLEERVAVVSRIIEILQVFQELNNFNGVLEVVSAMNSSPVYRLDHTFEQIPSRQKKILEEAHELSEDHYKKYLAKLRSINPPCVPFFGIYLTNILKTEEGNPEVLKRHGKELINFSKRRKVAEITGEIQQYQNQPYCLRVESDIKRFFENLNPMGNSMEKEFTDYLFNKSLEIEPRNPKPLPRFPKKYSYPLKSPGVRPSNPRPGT
The assay can be described thus: Evaluation of Inhibitory Activity of Compounds on KRAS G12C Nucleotide (GDP-GTP) Exchange Reaction. As for the experimental part:
The inhibitory activity of compounds on exchange reaction of GDP into GppNHp in Bodipy (trademark) FL-bound KRAS G12C was examined by fluorescence measurement using human recombinant KRAS G12C and SOS1 proteins.For the preparation of KRAS G12C to which Bodipy FL GDP was bound, first, […] KRAS G12C (amino acid region: 1-169) and 1 mM Bodipy FL GDP (Invitrogen, G22360) were incubated for 1 hour in a buffer (20 mM Tris-HCl (pH 7.5), 50 mM NaCl, 1 mM DTT) in ice in the presence of 2.5 mM EDTA. Thereafter, MgCl2 with a final concentration of 10 mM was added, and the mixture was incubated at room temperature for 30 minutes. The protein was allowed to pass through a NAP-5 column to remove free nucleotides and was used for compound evaluation.For the measurement of the inhibitory activity of compounds on nucleotide exchange reaction, first, the compound of the present invention was diluted stepwise with dimethyl sulfoxide (DMSO). Subsequently, a solution of the gradually diluted compound of the present invention in DMSO (the final concentration of DMSO: 5%) and KRAS G12C (25 nM) bound to Bodipy FL GDP were added to a reaction buffer (20 mM Tris-HCl (pH 7.5), 100 mM NaCl, 1 mM MgCl2, 2 mM DTT, 0.1% Tween20), followed by preincubation at 25° C. for 4 hours. Thereafter, Son of Sevenless Homolog 1 (SOS1, amino acid region: 564-1049) and GppNHp (GMPPNP, Jena Bioscience GmbH, NU-401-50) were added such that their final concentration was 100 nM and 1 μM respectively, followed by reaction for 30 minutes. The change in fluorescence intensity of Bodipy FL (excitation wavelength: 485 nm, fluorescence wavelength: 520 nm) immediately after the start of reaction and after 30 minutes from the start of reaction was standardized. The signal value for only DMSO was determined to be 0% inhibition, and the signal value for no addition of GppNHp was determined to be 100% inhibition. The compound concentration at which 50% inhibition is achieved was determined to be IC50 (nM), and was calculated.
What is called IC50 is the concentration that gives 50% inhibition. Higher therefore signals a need for much substance. Take `C=CC(=O)N1C[C@@H](CF)[C@@H](NC(=O)c2c(C)nc(CNc3n[nH]c4cc(Cl)c(C(C)(C)C)cc34)n2C)C1` [US12065430, Example 66]: the IC50 was found to be 20 nM. In the case of `C=CC(=O)N1C[C@@H](COC)[C@@H](NC(=O)c2c(C)nc(CNc3n[nH]c4cc(Cl)c(C(C)(C)C)cc34)n2C)C1` [US12065430, Example 67], the IC50 was determined as 24 nM. To `C=CC(=O)N1C[C@@H](CN(C)C)[C@@H](NC(=O)c2c(C)nc(CNc3n[nH]c4cc(Cl)c(C(C)(C)C)cc34)n2C)C1` [US12065430, Example 68] belongs 99 nM. In the case of `C=CC(=O)N1CC[C@@H](NC(=O)c2c(Cl)nc(CNc3n[nH]c4cc(Cl)c(C(C)(C)C)cc34)n2C)C1` [US12065430, Example 73], the IC50 was 52 nM.

The molecule `C=CC(=O)N1C[C@@H](C)[C@@H](NC(=O)c2c(F)nc(CNc3n[nH]c4cc(Cl)c(C(C)(C)C)cc34)n2C)C1` [US12065430, Example 74] showed an IC50 of 36 nM. Regarding `C=CC(=O)N1C[C@H](NC(=O)c2c(F)nc(CNc3n[nH]c4cc(Cl)c(C(C)(C)C)cc34)n2C)[C@@H](F)C1` [US12065430, Example 75], half-maximal inhibition (IC50) was put at 16 nM. To `C=CC(=O)N1C[C@H](NC(=O)c2c(Cl)nc(CNc3n[nH]c4cc(Cl)c(C(C)(C)C)cc34)n2C)[C@@H](F)C1` [US12065430, Example 76] belongs 13 nM. With `C=CC(=O)N1CC[C@@H](N(C)C(=O)c2cnc(CNc3n[nH]c4cc(Cl)c(C(C)(C)C)cc34)n2C)C1` [US12065430, Example 77] the figure was 142 nM; with `C=CC(=O)N1C[C@@H](C)[C@@H](NC(=O)c2c(Cl)nc(CNc3n[nH]c4cc(Cl)c(C(C)(C)C)cc34)n2C)C1` [US12065430, Example 78], 20 nM; with `C/C=C/C(=O)N1CC(NC(=O)c2c(C)nc(CNc3n[nH]c4cc(Cl)c(C(C)(C)C)cc34)n2C(C)C)C1` [US12065430, Example 81], 2630 nM.

The molecule `CC#CC(=O)N1CC(NC(=O)c2c(C)nc(CNc3n[nH]c4cc(Cl)c(C(C)(C)C)cc34)n2C(C)C)C1` [US12065430, Example 82] registered an IC50 of 209 nM.

Take `Cc1nc(CNc2n[nH]c3cc(Cl)c(C(C)(C)C)cc23)n(C(C)C)c1C(=O)NC1CN(C(=O)/C=C\Cl)C1` [US12065430, Example 83]: the IC50 is 2350 nM. With `CC(C)n1c(CNc2n[nH]c3cc(Cl)c(C(C)(C)C)cc23)nc(C(F)F)c1C(=O)NC1CN(C(=O)/C=C/CN(C)C)C1` [US12065430, Example 84] the figure was 63 nM.

Molecule `C=CS(=O)(=O)N1CC(NC(=O)c2c(C)nc(CNc3n[nH]c4cc(Cl)c(C(C)(C)C)cc34)n2C(C)C)C1` [US12065430, Example 86] registered an IC50 of 58 nM. To `C=CC(=O)N1CC(NC(=O)c2c(Cl)nc(CNc3n[nH]c4cc(Cl)c(C(C)(C)C)cc34)n2CCCC)C1` [US12065430, Example 87] belongs 14 nM; to `C=CC(=O)N1CC(NC(=O)c2c(Cl)nc(CNc3n[nH]c4cc(Cl)c(C(C)(C)C)cc34)n2CC(C)C)C1` [US12065430, Example 89], 7 nM; to `C=CC(=O)N1CC(NC(=O)c2c(Cl)nc(CNc3n[nH]c4cc(Cl)c(C(C)(C)C)cc34)n2CCOC)C1` [US12065430, Example 90], 6 nM.

In turn, `C=CC(=O)N1CC(NC(=O)c2c(C(F)F)nc(CNc3n[nH]c4cc(Cl)c(C(C)(C)C)cc34)n2C2CCN(C)C2)C1` (centres undefined) [US12065430, Example 91] yielded an IC50 of 7 nM. Consider `C=CC(=O)N1CC(NC(=O)c2c(C(F)F)nc(CNc3n[nH]c4cc(Cl)c(C(C)(C)C)cc34)n2C2CCN(CC)C2)C1` (centres undefined) [US12065430, Example 92], for which the midpoint of inhibition, the IC50, lay at 10 nM.

In turn, `C=CC(=O)N1CC(NC(=O)c2c(C(F)F)nc(CNc3n[nH]c4cc(Cl)c(C(C)(C)C)cc34)n2C2CCN(C(C)C)C2)C1` (centres undefined) [US12065430, Example 93] returned an IC50 of 6 nM. Turning to `C=CC(=O)N1CC(NC(=O)c2c(Cl)nc(CNc3n[nH]c4cc(Cl)c(C(C)(C)C)cc34)n2-c2ccccn2)C1` [US12065430, Example 94], 118 nM corresponded to half-maximal inhibition (IC50).

For the molecule `C=CC(=O)N1CC(NC(=O)c2c(C(F)F)nc(CNc3n[nH]c4cc(Cl)c(C(C)(C)C)cc34)n2CC2CCCN2C(C)C)C1` (centres undefined) [US12065430, Example 95], inhibition was half-maximal at 44 nM (IC50). The molecule `C=CC(=O)N1CC(NC(=O)c2c(C(F)F)nc(CNc3n[nH]c4cc(Cl)c(C(C)(C)C)cc34)n2C2CCN(C(C)=O)C2)C1` (centres undefined) [US12065430, Example 96] yielded an IC50 of 4 nM. Take `C=CC(=O)N1CC(NC(=O)c2c(Cl)nc(CNc3n[nH]c4cc(Cl)c(C(C)(C)C)cc34)n2C2CC=CC2)C1` [US12065430, Example 98]: half-maximal inhibition (IC50) required 7 nM.

On to `C=CC(=O)N1CC(NC(=O)c2c(Cl)nc(CNc3n[nH]c4cc(Cl)c(C(C)(C)C)cc34)n2[C@@H]2C[C@@H](O)[C@@H](O)C2)C1` [US12065430, Example 99], for which the IC50 was found to be 7 nM. With `C=CC(=O)N1CC(NC(=O)c2c(Cl)nc(CNc3n[nH]c4cc(Cl)c(C(C)(C)C)cc34)n2CC(F)F)C1` [US12065430, Example 100] the figure was 14 nM; with `C=CC(=O)N1CC(NC(=O)c2c(Cl)nc(CNc3n[nH]c4cc(Cl)c(C(C)(C)C)cc34)n2C2CCOCC2)C1` [US12065430, Example 101], 7 nM.

`C=CC(=O)N1CC(NC(=O)c2c(Cl)nc(CNc3n[nH]c4cc(Cl)c(C(C)(C)C)cc34)n2C2CCN(C)CC2)C1` [US12065430, Example 103] yielded an IC50 of 5 nM.

In the case of `C=CC(=O)N1CC(NC(=O)c2c(Cl)nc(CNc3n[nH]c4cc(Cl)c(C(C)(C)C)cc34)n2C2CCCOC2)C1` (centres undefined) [US12065430, Example 104], the IC50 was found to be 9 nM.

For `C=CC(=O)N1CC(NC(=O)c2c(Cl)nc(CNc3n[nH]c4cc(Cl)c(C(C)(C)C)cc34)n2C2CCCC2)C1` [US12065430, Example 105], the half-inhibitory concentration (IC50) worked out at 8 nM. Turning to `C=CC(=O)N1CC(NC(=O)c2c(Cl)nc(CNc3n[nH]c4cc(Cl)c(C(C)(C)C)cc34)n2C2CN(C(=O)OC(C)(C)C)C2)C1` [US12065430, Example 106], the IC50 is 8 nM. `C=CC(=O)N1CC(NC(=O)c2c(Cl)nc(CNc3n[nH]c4cc(Cl)c(C(C)(C)C)cc34)n2C2CN(C(C)=O)C2)C1` [US12065430, Example 108] yielded an IC50 of 9 nM. With `C=CC(=O)N1CC(NC(=O)c2c(Cl)nc(CNc3n[nH]c4cc(Cl)c(C(C)(C)C)cc34)n2C2CCCCC2)C1` [US12065430, Example 109] the figure was 23 nM; with `C=CC(=O)N1CC(NC(=O)c2c(Cl)nc(CNc3n[nH]c4cc(Cl)c(C(C)(C)C)cc34)n2CC2CCCC2)C1` [US12065430, Example 110], 9 nM; with `C=CC(=O)N1CC(NC(=O)c2c(Cl)nc(CNc3n[nH]c4cc(Cl)c(C(C)(C)C)cc34)n2[C@H]2C[C@H](C)CC[C@H]2C(C)C)C1` [US12065430, Example 111], 15 nM. To `C=CC(=O)N1CC(NC(=O)c2c(Cl)nc(CNc3n[nH]c4cc(Cl)c(C(C)(C)C)cc34)n2C2CCCN(CC(F)F)C2)C1` (centres undefined) [US12065430, Example 117] belongs 9 nM. With `C=CC(=O)N1CC(NC(=O)c2c(Cl)nc(CNc3n[nH]c4cc(Cl)c(C(C)(C)C)cc34)n2C2CCCN(C)C2)C1` (centres undefined) [US12065430, Example 118] the figure was 5 nM; with `C=CC(=O)N1CC(NC(=O)c2c(Cl)nc(CNc3n[nH]c4cc(Cl)c(C(C)(C)C)cc34)n2[C@@H]2CCN(CCOC)C2)C1` [US12065430, Example 119], 11 nM. `C=CC(=O)N1CC(NC(=O)c2c(Cl)nc(CNc3n[nH]c4cc(Cl)c(C(C)(C)C)cc34)n2[C@@H]2CCN(C3CC3)C2)C1` [US12065430, Example 120]: the 50% inhibitory concentration (IC50) worked out at 6 nM. Turning to `C=CC(=O)N1CC(NC(=O)c2c(Cl)nc(CNc3n[nH]c4cc(Cl)c(C(C)(C)C)cc34)n2[C@@H]2CCN(C3COC3)C2)C1` [US12065430, Example 121], the midpoint of inhibition, the IC50, lay at 5 nM. With `C=CC(=O)N1CC(NC(=O)c2c(Cl)nc(CNc3n[nH]c4cc(Cl)c(C(C)(C)C)cc34)n2[C@@H]2CCN(Cc3ccccc3)C2)C1` [US12065430, Example 122] the figure was 6 nM. With `C=CCN1CC[C@@H](n2c(CNc3n[nH]c4cc(Cl)c(C(C)(C)C)cc34)nc(Cl)c2C(=O)NC2CN(C(=O)C=C)C2)C1` [US12065430, Example 123] the figure was 9 nM; with `C=CC(=O)N1CC(NC(=O)c2c(Cl)nc(CNc3n[nH]c4cc(Cl)c(C(C)(C)C)cc34)n2[C@@H]2CCN(c3ccccn3)C2)C1` [US12065430, Example 124], 6 nM; with `C=CC(=O)N1CC(NC(=O)c2c(Cl)nc(CNc3n[nH]c4cc(Cl)c(C(C)(C)C)cc34)n2[C@@H]2CCN(CC(F)F)[C@H]2C)C1` [US12065430, Example 125], 13 nM.
